Experimental findings from patent US20260151398A1, “COMPOUNDS FOR REDUCING CHOLESTEROL AND TREATING LIVER AND KIDNEY DISEASE” (McMaster University, priority 2021, published 2026) are described below.

“Also recorded” adds a separate entry of the source.

One test has as its system SREBP2. Put plainly: SREBP2 expression and activation in hepatocytes (real-time PCR, SRE-GFP reporter, immunoblot, immunofluorescence). It is filed as cell-based, human, mouse. Conditions: for activation and nuclear localization of SREBP2: immunoblots of whole-cell lysates. The protocol: (§1) Cells were washed in phosphate-buffered saline (PBS), lysed in 4× SDS-PAGE lysis buffer and separated on 7-10% polyacrylamide gels in denaturing conditions. Gels were transferred to nitrocellulose membranes using the BioRad mini trans-blot system, blocked in 5% skim milk in tris-buffered saline (TBS) for 1 h and incubated in primary antibody overnight for 16 h at 4° C. Membranes were then exposed to horse radish peroxidase conjugated secondary antibodies and visualized using EZ-ECL chemiluminescent reagent (Froggabio). Band intensities were quantified using ImageJ software ([…]) against membranes reprobed for housekeeping proteins.
Cells were plated in 4-well chamber slides and incubated in complete DMEM for 24 h and exposed to treatments 24 h later for an additional 24 h. Cells were fixed with 4% paraformaldehyde for 30 minutes and washed with either non-permeabilizing, or permeabilizing PBS containing 0.025% Triton-X. Cells were then blocked with 1% bovine serum albumin (BSA) for 30 minutes and stained with anti-GFP antibody for 1 h in PBS containing 1% BSA. Afterwards, cells were washed and incubated with Alexa 488 fluorescently-labelled secondary antibodies (Thermofisher Scientific), as well as the DAPI nuclear stain. Slides were then mounted with permafluor and visualized using the EVOS FL colour imaging system at either 20 or 40× magnification.
(§2) RNA purification/isolation was performed using RNeasy mini kits (Qiagen) and normalized to 2 μg RNA using a NanoDrop® spectrophotometer. Samples were then reverse transcribed into cDNA using Superscript Vilo cDNA Synthesis kit (Thermofisher Scientific). Real-time PCR was executed with Fast SYBR Green (Thermo Fisher Scientific) using the ΔΔct method on the ViiA7 real-time PCR platform (Thermofisher Scientific).
Therefore, the effect of CF on TG-; induced SREBP2 activation was examined. […] SREBP2 activity was then examined at the protein level in HuH7 cells transfected with a plasmid encoding GFP driven by the sterol regulatory element (SRE-GFP; FIG. 2E to G). […] GFP expression was also visualized via immunofluorescent staining and quantified using ImageJ Software.

A further test has as its system ER Ca^2+ levels. Put plainly: ER Ca2+ in HuH7 cells (D1ER, Mag-Fluo-4, TG-induced efflux). It is filed as cell-based, human. Conditions: TG 100 nM, CDN 100 μM, CF 200 μM, 24 h. The protocol:
Intracellular Ca^2+ in Huh7 and HepG2 cells was measured using a high-affinity Ca^2+ indicator, Fura-2-AM (Thermofisher Scientific). ER Ca^2+ levels were assessed using the low-affinity Ca^2+ indicator, Mag-Fluo-4, and via transfection of cells with D1ER. The D1ER plasmid encodes an ER-resident calcium binding protein linked to a fluorescent protein and increases in fluorescence intensity upon Ca^2+ binding (7). For assessment using indicators, cells were plated in black clear-bottom 96-well plates to a confluence of 70-75% and treated with Ca^2+ modulating agents for 24 h (n=6). Cells were then washed and incubated with Fura-2-AM (2 μM) or Mag-Fluo-4 (2 μM) for 45 minutes at 37° C. in HBSS containing 20 mM HEPES and 2% pluronic acid v/v (Thermofisher Scientific). Fluorescence intensity of intracellular Fura-2-AM was measured at two distinct wavelengths (ex 340/em 515 and ex 380/em 515), following three consecutive washes, to assess bound and unbound states using a SpectraMax® GeminiEM fluorescent spectrophotometer (Molecular Devices, Sunnyvale, California, USA). Fluorescence intensity of Mag-Fluo-4 was quantified at a single wavelength (ex 495/em 515). […] Twenty-four h later, cells were treated with Ca^2+ modulating agents for an additional 24 h and quantified (ex 495/em 515) using a SpectraMax® GeminiEM fluorescent spectrophotometer.
Among the many intracellular effects of CF on the cell, its ability to increase intracellular Ca^2+ levels is well-studied (Echeverri, D., et al., 2010). […] ER Ca^2+ levels were then examined in cells transfected with D1ER; a genetically-encoded ER-resident fluorescence resonance energy transfer (FRET)-based […] chameleon Ca^2+ sensor, which increases in fluorescence intensity upon Ca^2+ binding (Palmer, A. E., et al., 2004). The low-affinity Ca^2+ indicator, Mag-Fluo-4, was also utilized for the direct assessment of ER Ca^2+ and increases in fluorescence intensity upon Ca^2+ binding (Diercks, B. P., et al., 2017; Lebeau, P., et al., 2021). […] ER Ca^2+ content was also assessed indirectly with the high affinity Ca^2+ dye, fura-2-AM (FIG. 6 B). […]

In test [1] the test system is ER stress markers (GRP78, ATF4, pPERK, IRE1α, sXBP1, ATF6). Put plainly: ER stress / UPR readouts in hepatocytes. Type of test: cell-based, human. The protocol:
as §1
Following treatment, live cells were incubated in complete DMEM containing 5 μM Thioflavin-T (ThT; Thermofisher Scientific) for 15 minutes. Cells were then fixed in 4% paraformaldehyde and mounted with permafluor. Fluorescent staining was visualized using the EVOS FL colour system at either 20 or 40× magnification.
as §2
Because ER Ca^2+ depletion induces a compensatory unfolded protein response (UPR), it was also postulated that CF may attenuate UPR marker expression by increasing ER Ca^2+ levels. […] Reactive oxygen species production, a process known to occur during conditions of ER stress, was also attenuated by CF (FIG. 9 H). […] While increasing the protein binding ability of chaperones, such as GRP78, CF also attenuates SREBP2-driven gene expression (FIG. 7 L).

For `Cc1ccc2cccc(NC(=O)c3ccc(OC(C)C)cc3)c2n1` [CDN], the “activation and nuclear localization of SREBP2” value in the test on SREBP2 was “antagonized the activation and nuclear localization of SREBP2”. In addition, the “ER Ca^2+ levels” value with ER Ca^2+ levels is reported as “increased ER Ca^2+ levels”. Further, in test [1] (HuH7, with TG 100 nM), the “TG-induced GRP78 expression” value is reported as “blocked TG-induced expression”.
Turning to `C/C=C(/C)C(=O)O[C@H]1C(C)=C2[C@H]([C@@H]1OC(=O)CCCCCCC)[C@@](C)(OC(C)=O)C[C@H](OC(=O)CCC)[C@@]1(O)[C@H]2OC(=O)[C@@]1(C)O` [TG, thapsigargin], the “activation and nuclear localization of SREBP2” value in the test with SREBP2 was “opposite effect”. The “ER Ca^2+ levels” value with ER Ca^2+ levels is “reduced ER Ca^2+ levels”. The GRP78 expression result in test [1] (HuH7, TG 100 nM, CPA 10 μM) was “increased the expression of GRP78”.
As to `Cn1c(=O)c2c(ncn2C)n(C)c1=O` [caffeine, 1,3,7-Trimethylxanthine], the “re-localization of SREBP2 to the nucleus” value in the test on SREBP2 (HuH7, TG-treated, immunofluorescence) is on record as “attenuated the re-localization of SREBP2”. Also, in the test on SREBP2 (HuH7 transfected with SRE-GFP, presence and absence of TG, listed as CF), the “nuclear SREBP2 (nSREBP2) and SRE-driven GFP expression” value was “blocked the nuclear/activated isoform of SREBP2; also recorded: blocks SREBP2 activation”. Besides, the SREBP2 expression entry in the test with SREBP2 (PMH, PHH, HepG2, real-time PCR) is recorded as “blocked the expression of SREBP2”. Moreover, the “activation and nuclear localization of SREBP2” value in the test on SREBP2 is “antagonized the activation and nuclear localization of SREBP2”. Moreover, the “ER Ca^2+ levels” value in the test on ER Ca^2+ levels was “increased ER Ca^2+ levels”. Also, in test [1] (HuH7), the “thioflavin-T-stained misfolded protein aggregates and FLAG-sXBP1 expression” value was “blocked the accumulation of thioflavin-T-stained misfolded protein aggregates”. Besides, in test [1] (HuH7, TG 100 nM), the “reactive oxygen species production” value is “attenuated”. Moreover, the “expression of pPERK, IRE1α, sXBP1, ATF4 and ATF6” value in test [1] (HuH7, immunoblotting and real-time PCR, listed as CF) was “reduction in the expression of pPERK, IRE1α, sXBP1, ATF4 and ATF6; also recorded: protects against ER stress”. The “mRNA of ER stress markers GRP78 and ATF4” value in test [1] (PHH, CF 200 μM) is “reduction in mRNA transcript levels of ER stress markers”.
